{
  "source": "patent US10463670B2",
  "about": "“Use of non-peptide NK1 antagonists in a predetermined dose for the treatment of cancer” (SERVICIO ANDALUZ DE SALUD, priority 2013, dated 2019)",
  "key": {"[1]": {"tested_on": "human melanoma; reference MEL-HO", "assay": "Melanoma MEL-HO tumours in nude mice, Cisplatin alone or with Aprepitant", "format": "in vivo", "settings": "Cisplatin 8 mg/kg on days 1 and 7, alone", "procedure": "(§1) Immunocompromised female mice, 5-6 weeks of age were used, nu/nu Balb/c nude mice, provided by Harlan Iberica Barcelona (Spain). They were kept at 24° C. and in sterile conditions with food and water “ad libitum”. […] The tumour size was measured and the mice were evaluated for their state of health and weight daily. […] One of the groups was treated with 200 μl of placebo (control group) and the eight remaining groups with doses of 10 (group 1), 20 (group 2), 30 (group 3), 40 (group 4), 50 (group 5), 60 (group 6), 70 (group 7) and 80 (group 8) mg per kilogram of weight and day of the NK1 receptor antagonist Aprepitant. 3 animals were treated per group, during 28 days. All the mice were sacrificed at the end of the experiment. […] Immunocompromised female mice, 5-6 weeks of age were used, in the same conditions as explained in example 1. […] The tumour size was measured and the mice were evaluated for their state of health and weight daily. […] One of the groups was treated with two single doses of Cisplatin, of 8 mg per kilogram of weight, on days 1 and 7 of the experiment (control group). The eight remaining groups were treated with the same treatment as the control group and the doses of 1 (group 1), 3 (group 2), 5 (group 3), 6 (group 4), 7 (group 5), 8 (group 6), 9 (group 7) and 10 (group 8) mg per kilogram of weight and day, of the NK1 receptor antagonist Aprepitant. […]"}, "[2]": {"tested_on": "human fibrosarcoma; reference HT-1080", "assay": "Fibrosarcoma HT-1080 tumours in nude mice, Cisplatin alone or with Aprepitant", "format": "in vivo", "settings": "Cisplatin 8 mg/kg on days 1 and 7, alone", "procedure": "as §1"}, "[3]": {"tested_on": "human neuroblastoma; reference KELLY", "assay": "Neuroblastoma KELLY tumours in nude mice, Cisplatin alone or with Aprepitant", "format": "in vivo", "settings": "Cisplatin 8 mg/kg on days 1 and 7, alone", "procedure": "as §1"}, "[4]": {"tested_on": "human lymphoma; reference BC-1", "assay": "Lymphoma BC-1 tumours in nude mice, Cisplatin alone or with Aprepitant", "format": "in vivo", "settings": "Cisplatin 8 mg/kg on days 1 and 7, alone", "procedure": "as §1"}, "[5]": {"tested_on": "human glioma; reference GAMG", "assay": "Glioma GAMG tumours in nude mice, Cisplatin alone or with Aprepitant", "format": "in vivo", "settings": "Cisplatin 8 mg/kg on days 1 and 7, alone", "procedure": "as §1"}, "[6]": {"tested_on": "human lung cancer; reference HCC-44", "assay": "Lung cancer HCC-44 tumours in nude mice, Cisplatin alone or with Aprepitant", "format": "in vivo", "settings": "Cisplatin 8 mg/kg on days 1 and 7, alone", "procedure": "Immunocompromised female mice, 5-6 weeks of age were used, nu/nu Balb/c nude mice, provided by Harlan Iberica Barcelona (Spain). They were kept at 24° C. and in sterile conditions with food and water “ad libitum”. […] The tumour size was measured and the mice were evaluated for their state of health and weight daily. […] One of the groups was treated with 200 μl of placebo (control group) and the eight remaining groups with doses of 10 (group 1), 20 (group 2), 30 (group 3), 40 (group 4), 50 (group 5), 60 (group 6), 70 (group 7) and 80 (group 8) mg per kilogram of weight and day of the NK1 receptor antagonist Aprepitant. 3 animals were treated per group, during 28 days. All the mice were sacrificed at the end of the experiment. […] Immunocompromised female mice, 5-6 weeks of age were used, in the same conditions as explained in example 1. […] The tumour size was measured and the mice were evaluated for their state of health and weight daily. […] One of the groups was treated with Cisplatin at 8 mg per kilogram of weight at single doses on days 1 and 7 of the experiment (control group) and the eight remaining groups with the same treatment as the control group and the doses of 1 (group 1), 3 (group 2), 5 (group 3), 6 (group 4), 7 (group 5), 8 (group 6), 9 (group 7) and 10 (group 8) mg per kilogram of weight and day, of the NK1 receptor antagonist Aprepitant. […]"}, "cell proliferation": {"tested_on": "cell proliferation", "settings": "Singh et al. 2000; Bigioni et al. 2005; cited from earlier work"}},
  "note": "Where a SMILES comes first, the peptide text is derived from it. Bridges are numbered along the chain shown (N, C = ends). [ ]: non-standard residue; d: D form. The star is where a group is joined. NH(β-GlcNAc) = CC(=O)N[C@@H]1[C@@H](O)[C@H](O)[C@@H](CO)O[C@H]1N*; Dap = NC[C@H](N)C(=O)O",
  "data": [
    {"molecule": "N.N.[Cl][Pt][Cl]", "note": "[Cisplatin]", "values": [
      {"measurement": "Tumour size (mean volume of the tumour)", "setting": "[1]; 7 days", "result": "105 ± 6", "unit": "cubic millimeters"},
      {"measurement": "Tumour size (mean volume of the tumour)", "setting": "[1]; 14 days", "result": "75 ± 6", "unit": "cubic millimeters"},
      {"measurement": "Tumour size (mean volume of the tumour)", "setting": "[2]; 7 days", "result": "95 ± 5", "unit": "cubic millimeters"},
      {"measurement": "Tumour size (mean volume of the tumour)", "setting": "[2]; 14 days", "result": "65 ± 5", "unit": "cubic millimeters"},
      {"measurement": "Tumour size (mean volume of the tumour)", "setting": "[3]; 7 days", "result": "95 ± 8", "unit": "cubic millimeters"},
      {"measurement": "Tumour size (mean volume of the tumour)", "setting": "[3]; 14 days", "result": "60 ± 8", "unit": "cubic millimeters"},
      {"measurement": "Tumour size (mean volume of the tumour)", "setting": "[4]; 7 days", "result": "85 ± 6", "unit": "cubic millimeters"},
      {"measurement": "Tumour size (mean volume of the tumour)", "setting": "[4]; 14 days", "result": "50 ± 3", "unit": "cubic millimeters"},
      {"measurement": "Tumour size (mean volume of the tumour)", "setting": "[5]; 7 days", "result": "115 ± 7", "unit": "cubic millimeters"},
      {"measurement": "Tumour size (mean volume of the tumour)", "setting": "[5]; 14 days", "result": "85 ± 6", "unit": "cubic millimeters"},
      {"measurement": "Tumour size (mean volume of the tumour)", "setting": "[6]; 7 days", "result": "105 ± 4", "unit": "cubic millimeters"},
      {"measurement": "Tumour size (mean volume of the tumour)", "setting": "[6]; 14 days", "result": "70 ± 7", "unit": "cubic millimeters"}
    ]},
    {"molecule": "CC(=O)N[C@@H]1[C@@H](O)[C@H](O)[C@@H](CO)O[C@H]1NC(=O)C[C@@H]1NC(=O)[C@H](CC(C)C)NC(=O)[C@@H]2CNC(=O)C[C@H](NC1=O)C(=O)N[C@@H](Cc1c[nH]c3ccccc13)C(=O)N[C@@H](Cc1ccccc1)C(=O)N2", "note": "[MEN 11420, Nepadutant] (cyclo(D(NH(β-GlcNAc))DWF[Dap]L); lactam 2-5)", "values": [
      {"measurement": "Blocking cell proliferation", "setting": "cell proliferation", "result": "efficacy thereof in blocking cell proliferation"}
    ]},
    {"molecule": "Cc1ccc(CC(=O)N(C)[C@H](Cc2ccc3ccccc3c2)C(=O)N[C@@H]2CCCC[C@@H]2NC(=O)c2c[nH]c3ccccc23)cc1", "note": "[MEN 11467]", "values": [
      {"measurement": "Blocking cell proliferation", "setting": "cell proliferation", "result": "efficacy thereof in blocking cell proliferation"}
    ]},
    {"molecule": "CC(=O)NC1(c2ccccc2)CCN(CC[C@H](CN(C)C(=O)c2ccccc2)c2ccc(Cl)c(Cl)c2)CC1", "note": "[SR 48968]", "values": [
      {"measurement": "Blocking cell proliferation", "setting": "cell proliferation", "result": "efficacy thereof in blocking cell proliferation"}
    ]}
  ]
}
